Consider 36 compounds from patent publication US9302996B2, “Continuous arycyclic compound” (MITSUBISHI TANABE PHARMA CORPORATION, priority 2010, dated 2016).

The structures appear in SMILES notation.

The test system of test [1] is C57BL/6J mice. Nature of the test: Antifeeding activity (high fat diet intake up to 4 hours). Type of test: in vivo. Conditions: Mus musculus, male C57BL/6J mice, 5 mg/kg oral, food ingested up to 4 hours, read-out: Antifeeding rate (5 mg/kg). As to the method:
7 to 10 weeks-old male C57BL/6J mice were fasted overnight, and the test compound suspended in 0.2% carboxymethylcellulose solution was orally administered. Immediately after the administration, high fat diet (Oriental Yeast Co., Ltd, 60 cal % fat) was provided and freely fed. An amount of food ingested up to 4 hours was measured, and a lowering rate (an antifeeding rate) of the amount of food ingested in the Test compound administered group was calculated as compared to that of the solvent control group as a control.

For test [2], the system named is ICR mice. Nature of the test: Triglyceride (TG) in blood plasma increase-inhibiting action due to lipid administration. The format is in vivo. Conditions: Mus musculus; male ICR mice, 5 mg/kg oral, lipid (Intralipos 20%) after 30 minutes, plasma TG 2 hours after lipid; read-out: Inhibiting rate of TG-increase in blood plasma (5 mg/kg). As to the method: 6 to 9 weeks-old male ICR mice were fasted overnight, and Test compound suspended in 0.2% carboxymethyl cellulose solution was orally administered to the mice. A lipid (Intralipos 20%, OTSUKA PHARMACEUTICAL CO., LTD., 10 mL/kg) was orally administered after 30 minutes. Blood was collected from tail vein immediately before the lipid administration, and after 2 hours from the same to obtain blood plasma. Measurement of TG in blood plasma was carried out by using a triglyceride E Test Wako (Wako Pure Chemical Industries, Ltd.), and an increased value of TG in blood plasma by administration of the lipid was calculated. An increased value of TG in blood plasma in a solvent control group was used as a control, and an inhibiting rate in increase of TG in blood plasma in the Test compound administered group was calculated.

For `CC(C)(COc1ncc(-c2ccc(-c3ncc(C(F)(F)F)[nH]3)c(Cl)c2)cc1F)C(=O)O` [Example 82], the figures for the inhibition in vivo at 5 mg/kg in test [1] and in test [2] were 42% and 47%, respectively.

`CC(C)(COc1ncc(-c2ccc(-c3ncc(C(F)(F)F)[nH]3)cc2)cc1F)C(=O)O` [Example 90]: the inhibition in vivo at 5 mg/kg is 75% in test [1] and 83% in test [2].

As to `Cc1cc(OCC2(C(=O)O)CCC2)ncc1-c1ccc(-c2ncc(C(F)(F)F)[nH]2)c(Cl)c1` [Example 101-3), 1-{[(5-{3-chloro-4-[5-(trifluoromethyl)-1H-imidazol-2-yl]phenyl}-4-methylpyridin-2-yl)oxy]methyl}cyclobutanecarboxylic acid], the inhibition in vivo at 5 mg/kg in test [1] was 57%; in test [2], 71%.

On to `Cc1cc(OCC(C)(C)C(=O)O)ncc1-c1ccc(-c2ncc(C(C)(C)C(F)(F)F)[nH]2)nc1` [Example 47], for which the inhibition in vivo at 5 mg/kg in test [1] was 44%; in test [2] it was 72%.

For the compound `Cc1cc(OCC2(C(=O)O)CC2)ncc1-c1cnc(-c2ncc(C(F)(F)F)[nH]2)c(F)c1` [Example 136], the inhibition in vivo at 5 mg/kg was found to be 62% in test [1] and 64% in test [2].

With `Cc1cc(OCC(C)(C)C(=O)O)ncc1-c1ccc(-c2ncc(C(F)(F)C(F)(F)F)[nH]2)nc1` [Example 116], the inhibition in vivo at 5 mg/kg in test [1] came to 76%; in test [2] it was 82%.

`Cc1nc(OCC(C)(C)C(=O)O)ccc1-c1ccc(-c2ncc(C(F)(F)F)[nH]2)cn1` [Example 10]: the inhibition in vivo at 5 mg/kg in test [1] and in test [2] was 62% in each case.

With `Cc1cc(OCC(C)(C)C(=O)O)ncc1-c1ccc(-c2ncc(CC3CC3)[nH]2)nc1` [Example 118], the inhibition in vivo at 5 mg/kg came to 61% in test [1] and 64% in test [2].

Consider `CC(C)c1cnc(-c2ccc(-c3ccc(OCC(C)(C)C(=O)O)cc3)nc2)[nH]1` [Example 28], for which the inhibition in vivo at 5 mg/kg came out at 54% in test [1] and 59% in test [2].

`CC(C)(COc1ccc(-c2ccc(-c3ncc(C4(C(F)(F)F)CCC4)[nH]3)cn2)cc1)C(=O)O` [Example 88-3), sodium 2,2-dimethyl-3-[4-(5-{5-[1-(trifluoromethyl)cyclobutyl]-1H-imidazol-2-yl}pyridin-2-yl)phenoxy)propanoate]: the values for the inhibition in vivo at 5 mg/kg in test [1] and in test [2] were 55% and 65%, respectively.

Turning to `CC(C)(COc1ncc(-c2ccc(-c3ncc(C(C)(C)C(F)(F)F)[nH]3)cc2)cc1F)C(=O)O` [Example 143], the inhibition in vivo at 5 mg/kg was found to be 4% in test [1] and 55% in test [2].

Regarding `Cc1cc(OCC2(C(=O)O)CC2)ccc1-c1ccc(-c2ncc(C(F)(F)F)[nH]2)cn1` [Example 71], the inhibition in vivo at 5 mg/kg in test [1] worked out at 29%; in test [2] it was 50%.

Regarding `CC(C)(COc1ccc(-c2ccc(-c3nc(C(F)(F)F)c[nH]3)cc2)cc1)C(=O)O` [Example 93-3), 3-({4′-[5-(trifluoromethyl)-1H-imidazol-2-yl]biphenyl-4-yl}oxy)-2,2-dimethylpropanoic acid], the inhibition in vivo at 5 mg/kg in test [1] came out at 68%; in test [2] it was 67%.

Take `CC(C)(COc1ccc(-c2cnc(-c3ncc(C(F)(F)F)[nH]3)c(F)c2)cn1)C(=O)O` [Example 141]: the inhibition in vivo at 5 mg/kg in test [1] is 55%; in test [2], 82%.

Turning to `Cc1cc(OCC(C)(C)C(=O)O)ncc1-c1ccc(-c2ncc(CC(C)C)[nH]2)cc1` [Example 104], the figures for the inhibition in vivo at 5 mg/kg in test [1] and in test [2] were 62% and 67%, respectively.

On to `CC(C)CCc1cnc(-c2ccc(-c3ccc(OCC(C)(C)C(=O)O)cc3)nc2)[nH]1` [Example 25], for which the inhibition in vivo at 5 mg/kg in test [1] was 81%; in test [2], 54%.

Take `Cc1cc(OCC2(C(=O)O)CCC2)ncc1-c1cnc(-c2ncc(C(F)(F)F)[nH]2)c(Cl)c1` [Example 99-6), 1-[({5′-chloro-4-methyl-6′-[5-(trifluoromethyl)-1H-imidazol-2-yl]-3,3′-bipyridin-6-yl}oxy)methyl]cyclobutanecarboxylic acid]: the inhibition in vivo at 5 mg/kg was 85% in test [1] and 95% in test [2].

For `CCC(CC)(COc1ccc(-c2ccc(-c3ncc(C(F)(F)F)[nH]3)cn2)cc1)C(=O)O` [Example 19-3), 2-ethyl-2-[[4-[5-[4-(trifluoromethyl)-1H-imidazol-2-yl]-2-pyridyl]phenoxy]methyl]butanoic acid], the inhibition in vivo at 5 mg/kg was 78% in test [1] and 89% in test [2].

For `CC(C)(COc1cnc(-c2ccc(-c3ncc(C(F)(F)F)[nH]3)c(F)c2)cn1)C(=O)O` [Example 91], the inhibition in vivo at 5 mg/kg in test [1] and in test [2] was 51% in each case.

`Cc1cc(OCC2(C(=O)O)CCC2)ncc1-c1ccc(-c2ncc(C(F)(F)F)[nH]2)nc1` [Example 97-5), 1-[({4-methyl-6′-[5-(trifluoromethyl)-1H-imidazol-2-yl]-3,3′-bipyridin-6-yl}oxy)methyl]cyclobutanecarboxylic acid]: the inhibition in vivo at 5 mg/kg is 92% in test [1] and 102% in test [2].

With `CC(C)(COc1ccc(-c2ccc(-c3ncc(C(F)(F)F)[nH]3)cn2)cc1)CC(=O)O` [Example 65], the inhibition in vivo at 5 mg/kg in test [1] worked out at 79%; in test [2], 75%.

Consider `CCc1cnc(-c2ccc(-c3ccc(OCC(C)(C)C(=O)O)cc3)nc2)[nH]1` [Example 58-2), 3-[4-[5-(5-ethyl-1H-imidazol-2-yl)-2-pyridyl]phenoxy]-2,2-dimethylpropanoic acid], for which the inhibition in vivo at 5 mg/kg was 65% in test [1] and 64% in test [2].

Take `Cc1cc(OCC(C)(C)C(=O)O)ncc1-c1ccc(-c2ncc(C(C)(C)C(F)(F)F)[nH]2)c(F)c1` [Example 115]: the inhibition in vivo at 5 mg/kg in test [1] was found to be 62%; in test [2], 50%.

For the compound `Cc1cc(OCC(C)(C)C(=O)O)ncc1-c1ccc(-c2ncc(CC3CC3)[nH]2)c(C)c1` [Example 109], the figures for the inhibition in vivo at 5 mg/kg in test [1] and in test [2] were 41% and 50%, respectively.

On to `CC(C)Cc1cnc(-c2ccc(-c3ccc(OCC(C)(C)C(=O)O)nc3)nc2)[nH]1` [Example 59], for which the inhibition in vivo at 5 mg/kg in test [1] amounted to 50%; in test [2], 74%.

Take `CCC(CC)(COc1cc(C)c(-c2ccc(-c3ncc(C(F)(F)F)[nH]3)c(Cl)c2)cn1)C(=O)O` [Example 140]: the inhibition in vivo at 5 mg/kg in test [1] is 78%; in test [2] it was 68%.

For the compound `CC(C)(COc1cnc(-c2ccc(-c3ncc(C4(C(F)(F)F)CC4)[nH]3)cc2)cn1)C(=O)O` [Example 49], the results for the inhibition in vivo at 5 mg/kg in test [1] and in test [2] were 58% and 48%, respectively.

Consider `CC(C)(COc1ccc(-c2ccc(-c3ncc(C(F)(F)F)[nH]3)cn2)c(F)c1)C(=O)O` [Example 64], for which the inhibition in vivo at 5 mg/kg was 78% in test [1] and 60% in test [2].

As to `O=C(O)C1(COc2ccc(-c3ccc(-c4ncc(C(F)(F)F)[nH]4)cn3)cc2)CCCC1` [Example 20], the figures for the inhibition in vivo at 5 mg/kg in test [1] and in test [2] were 70% and 74%, respectively.

As to `CC(C)(COc1ccc(-c2ccc(-c3ncc(C4CCCCCC4)[nH]3)cn2)cc1)C(=O)O` [Example 31], the values for the inhibition in vivo at 5 mg/kg in test [1] and in test [2] were 65% and 86%, respectively.

Regarding `Cc1cc(OCC(C)(C)C(=O)O)ncc1-c1ccc(-c2ncc(CC3CC3)[nH]2)c(Cl)c1` [Example 121], the inhibition in vivo at 5 mg/kg in test [1] was 57%; in test [2] it was 53%.

In the case of `O=C(O)C1(COc2ccc(-c3ccc(-c4ncc(C(F)(F)F)[nH]4)cn3)cc2)CC1` [Example 60-3), 1-[[4-[5-[5-(trifluoromethyl)-1H-imidazol-2-yl]-2-pyridyl]phenoxy]methyl]cyclopropanecarboxylic acid], the inhibition in vivo at 5 mg/kg turned out to be 59% in test [1] and 48% in test [2].

With `Cc1cc(OCC2(C(=O)O)CC2)ncc1-c1ccc(-c2ncc(C(F)(F)F)[nH]2)nc1` [Example 132], the inhibition in vivo at 5 mg/kg was 47% in test [1] and 65% in test [2].

On to `CC(C)(COc1ncc(-c2ccc(-c3ncc(C(F)(F)F)[nH]3)cc2)cn1)C(=O)O` [Example 67], for which the inhibition in vivo at 5 mg/kg is 58% in test [1] and 70% in test [2].

Turning to `CCC(CC)c1cnc(-c2ccc(-c3ccc(OCC(C)(C)C(=O)O)cc3)nc2)[nH]1` [Example 29], the figures for the inhibition in vivo at 5 mg/kg in test [1] and in test [2] were 28% and 52%, respectively.

For the compound `Cc1cc(OCC2(C(=O)O)CCC2)ncc1-c1ccc(-c2ncc(C(F)(F)F)[nH]2)c(F)c1` [Example 98-3), 1-{[(5-{3-fluoro-4-[5-(trifluoromethyl)-1H-imidazol-2-yl]phenyl}-4-methylpyridin-2-yl)oxy]methyl}cyclobutanecarboxylic acid], the results for the inhibition in vivo at 5 mg/kg in test [1] and in test [2] were 89% and 105%, respectively.
